Laboratory results published in article PMC10112881 (Cell reports, 2023).
Like-named read-outs stand apart in the source and are kept apart here.

How the values were obtained:
5-HT2A [1] = target: T1, 5-HT2A (Homo sapiens, UniProt P28223); test: NanoBit HiBiT surface expression/internalization assay; format: cell-based; conditions: 60 minutes of treatment
[2] = Chronic variable stress: splash test; format: in vivo, female mice; conditions: 1X 3 mg/kg and 4X 1 mg/kg groups
α2A = α2A (Homo sapiens, UniProt P08913); test: G protein dissociation BRET assay; format: cell-based; conditions: read-out: KB (antagonist)
α2A, sequence (P08913 whole entry): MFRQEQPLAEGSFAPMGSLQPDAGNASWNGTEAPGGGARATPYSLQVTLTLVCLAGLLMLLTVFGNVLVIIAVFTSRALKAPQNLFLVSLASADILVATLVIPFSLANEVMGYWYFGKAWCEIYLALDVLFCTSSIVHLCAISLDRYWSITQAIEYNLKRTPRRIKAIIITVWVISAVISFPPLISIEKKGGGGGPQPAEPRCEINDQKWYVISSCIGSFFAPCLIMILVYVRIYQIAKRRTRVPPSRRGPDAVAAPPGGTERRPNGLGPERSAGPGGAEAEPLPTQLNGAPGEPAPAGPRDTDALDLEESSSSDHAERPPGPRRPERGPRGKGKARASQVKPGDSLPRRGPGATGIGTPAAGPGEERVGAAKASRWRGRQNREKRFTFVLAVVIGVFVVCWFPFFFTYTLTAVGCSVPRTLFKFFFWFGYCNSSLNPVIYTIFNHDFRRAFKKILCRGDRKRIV

D3 = D3 (Homo sapiens, UniProt P35462); test: G protein dissociation BRET assay; format: cell-based; conditions: relative to dopamine
[3] = Pharmacokinetics in plasma and brain of mice; conditions: for mean plasma Cmax / Cmax: IP 6.75 mg/kg; for mean terminal T1/2, plasma: range over doses; for Cmax: read-out: mean plasma Cmax
hERG (KV11.1) channel [4] = target: T2, hERG (KV11.1) channel (Homo sapiens, UniProt Q12809); test: hERG inhibition
T2 sequence (Q12809 whole entry): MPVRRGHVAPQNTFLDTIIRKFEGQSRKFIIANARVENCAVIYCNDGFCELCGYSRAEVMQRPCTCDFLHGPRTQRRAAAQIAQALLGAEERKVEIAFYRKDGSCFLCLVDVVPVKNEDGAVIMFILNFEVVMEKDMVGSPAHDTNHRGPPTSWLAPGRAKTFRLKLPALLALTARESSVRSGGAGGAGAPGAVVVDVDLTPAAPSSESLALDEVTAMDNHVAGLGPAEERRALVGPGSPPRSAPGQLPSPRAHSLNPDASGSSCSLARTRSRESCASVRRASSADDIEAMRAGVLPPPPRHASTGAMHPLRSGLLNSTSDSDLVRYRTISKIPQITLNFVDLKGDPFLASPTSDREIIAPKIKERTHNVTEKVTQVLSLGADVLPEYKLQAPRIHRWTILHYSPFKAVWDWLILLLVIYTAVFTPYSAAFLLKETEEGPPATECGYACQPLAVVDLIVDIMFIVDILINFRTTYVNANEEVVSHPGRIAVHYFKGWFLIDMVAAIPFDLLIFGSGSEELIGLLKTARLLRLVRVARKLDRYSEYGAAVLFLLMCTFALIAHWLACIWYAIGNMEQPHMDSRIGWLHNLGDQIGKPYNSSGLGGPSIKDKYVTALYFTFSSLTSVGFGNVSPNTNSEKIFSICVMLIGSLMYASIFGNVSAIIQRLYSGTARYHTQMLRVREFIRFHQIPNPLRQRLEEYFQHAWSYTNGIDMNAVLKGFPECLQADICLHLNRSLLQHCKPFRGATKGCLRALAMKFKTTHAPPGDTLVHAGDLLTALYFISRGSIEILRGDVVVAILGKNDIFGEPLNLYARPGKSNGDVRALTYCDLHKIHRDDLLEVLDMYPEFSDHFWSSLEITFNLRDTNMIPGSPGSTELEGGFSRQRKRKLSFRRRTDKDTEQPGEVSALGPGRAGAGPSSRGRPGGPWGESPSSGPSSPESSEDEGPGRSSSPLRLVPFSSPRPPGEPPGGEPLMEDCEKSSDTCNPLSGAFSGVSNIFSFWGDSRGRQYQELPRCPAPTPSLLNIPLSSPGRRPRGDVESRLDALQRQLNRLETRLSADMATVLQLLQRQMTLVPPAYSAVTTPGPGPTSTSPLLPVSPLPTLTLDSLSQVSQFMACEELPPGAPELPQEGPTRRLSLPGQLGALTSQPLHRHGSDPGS

[5] = cited from earlier work
Open field test = format: in vivo, C57BL/6J mice; conditions: 24 h after
D1/5 subtypes = test: G protein dissociation BRET assay; format: cell-based, human
[6] = Chronic variable stress: open field test; format: in vivo, female mice
PFC pyramidal neurons = test: Spine density in prefrontal cortex; conditions: 1 mg/kg IP, ~26 h after treatment, both sexes
5-HT1A = 5-HT1A (Homo sapiens, UniProt P08908); test: β-arrestin2 recruitment BRET assay; format: cell-based
HTR induced by DOI [7] = test: Tolerance to DOI-induced HTR after repeated treatment; conditions: 3 mg/kg/day IP 7 days, DOI 1 mg/kg challenge 24 h later
33 human aminergic GPCRs = test: Pan-aminergic GPCR functional screen; format: cell-based; conditions: of 33 aminergic GPCR targets tested
Nav1.5 sodium channels = Nav1.5 sodium channels (Homo sapiens, UniProt Q14524); test: Off-target panel: Nav1.5
HTR induced by DOI [8] = test: Blockade of DOI-induced head-twitch response; conditions: DOI 1 mg/kg IP
D4 = D4 (Homo sapiens, UniProt P21917); test: G protein dissociation BRET assay; format: cell-based
D4, sequence (P21917 whole entry): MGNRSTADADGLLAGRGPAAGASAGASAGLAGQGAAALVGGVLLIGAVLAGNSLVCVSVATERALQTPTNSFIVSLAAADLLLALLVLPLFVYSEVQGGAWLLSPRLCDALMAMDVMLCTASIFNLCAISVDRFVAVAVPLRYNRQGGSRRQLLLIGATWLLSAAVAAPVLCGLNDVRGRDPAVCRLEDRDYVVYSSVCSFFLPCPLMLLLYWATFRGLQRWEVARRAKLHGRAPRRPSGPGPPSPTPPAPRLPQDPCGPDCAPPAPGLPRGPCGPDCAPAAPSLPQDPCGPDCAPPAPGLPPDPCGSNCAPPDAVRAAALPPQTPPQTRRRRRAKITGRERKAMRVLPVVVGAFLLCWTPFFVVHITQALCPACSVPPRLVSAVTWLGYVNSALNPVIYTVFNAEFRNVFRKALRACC

[9] = tested on: rest of the histamine and muscarinic GPCRs; test: G protein dissociation BRET assay; format: cell-based, human
5-HT4 = 5-HT4 (Homo sapiens, UniProt Q13639); test: G protein dissociation BRET assay; format: cell-based
5-HT4, sequence (Q13639 whole entry): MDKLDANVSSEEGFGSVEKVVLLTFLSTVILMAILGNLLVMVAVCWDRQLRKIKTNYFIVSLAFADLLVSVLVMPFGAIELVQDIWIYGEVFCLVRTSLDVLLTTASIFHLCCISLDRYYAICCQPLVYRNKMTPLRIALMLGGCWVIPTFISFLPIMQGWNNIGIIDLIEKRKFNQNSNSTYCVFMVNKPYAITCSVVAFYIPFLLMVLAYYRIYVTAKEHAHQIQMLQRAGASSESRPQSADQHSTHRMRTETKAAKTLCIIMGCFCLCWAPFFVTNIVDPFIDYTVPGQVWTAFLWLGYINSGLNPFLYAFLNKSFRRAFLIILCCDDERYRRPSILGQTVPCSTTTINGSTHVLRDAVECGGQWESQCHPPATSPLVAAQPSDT

[10] = tested on: primary rat cortical neurons; test: Cell viability of primary cortical neurons; format: cell-based; conditions: every tested concentration
rat cortical neurons [11] = test: Spinogenesis in cultured cortical neurons; format: cell-based; conditions: 1 and 10 μM, 3 h at DIV18, read 24 h after onset
[12] = tested on: 5-HT1 Gi/o-coupled receptor subtypes; test: G protein dissociation BRET assay; format: cell-based, human
rat cortical neurons [13] = test: Dendritogenesis; format: cell-based
α1A = α1A (Homo sapiens, UniProt P35348); test: G protein dissociation BRET assay; format: cell-based; conditions: read-out: KB (antagonist)
α1A, sequence (P35348 whole entry): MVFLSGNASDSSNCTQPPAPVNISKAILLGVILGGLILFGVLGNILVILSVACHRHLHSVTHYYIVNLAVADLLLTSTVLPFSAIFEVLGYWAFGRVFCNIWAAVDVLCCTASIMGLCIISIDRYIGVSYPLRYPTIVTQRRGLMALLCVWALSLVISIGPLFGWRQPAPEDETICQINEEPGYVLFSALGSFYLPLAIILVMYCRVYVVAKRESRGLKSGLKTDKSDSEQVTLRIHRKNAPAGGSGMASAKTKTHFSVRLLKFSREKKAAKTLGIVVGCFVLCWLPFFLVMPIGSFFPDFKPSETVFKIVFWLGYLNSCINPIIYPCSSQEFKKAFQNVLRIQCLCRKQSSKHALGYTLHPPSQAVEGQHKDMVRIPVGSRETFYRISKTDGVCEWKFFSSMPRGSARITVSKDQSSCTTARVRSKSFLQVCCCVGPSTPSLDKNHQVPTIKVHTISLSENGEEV

5-HT2A [14] = target: T1, 5-HT2A; format: cell-based; conditions: Gq dissociation
H2 = H2 (Homo sapiens, UniProt P25021); test: G protein dissociation BRET assay; format: cell-based
5-HT7a = 5-HT7a (Homo sapiens, UniProt P34969); test: G protein dissociation BRET assay; format: cell-based
5-HT2C = 5-HT2C (Homo sapiens, UniProt P28335); format: cell-based; conditions: Gq partial agonism
OCT2 = OCT2 (Homo sapiens, UniProt O15244); test: Transporter panel: OCT2
head-twitch response = test: Head-twitch response
D2 = D2 (Homo sapiens, UniProt P14416); test: G protein dissociation BRET assay; format: cell-based
5-HT2B = 5-HT2B (Homo sapiens, UniProt P41595); test: 5-HT2B Gq dissociation, β-arrestin2 recruitment BRET and calcium flux assays
5-HT2B, sequence (P41595 whole entry): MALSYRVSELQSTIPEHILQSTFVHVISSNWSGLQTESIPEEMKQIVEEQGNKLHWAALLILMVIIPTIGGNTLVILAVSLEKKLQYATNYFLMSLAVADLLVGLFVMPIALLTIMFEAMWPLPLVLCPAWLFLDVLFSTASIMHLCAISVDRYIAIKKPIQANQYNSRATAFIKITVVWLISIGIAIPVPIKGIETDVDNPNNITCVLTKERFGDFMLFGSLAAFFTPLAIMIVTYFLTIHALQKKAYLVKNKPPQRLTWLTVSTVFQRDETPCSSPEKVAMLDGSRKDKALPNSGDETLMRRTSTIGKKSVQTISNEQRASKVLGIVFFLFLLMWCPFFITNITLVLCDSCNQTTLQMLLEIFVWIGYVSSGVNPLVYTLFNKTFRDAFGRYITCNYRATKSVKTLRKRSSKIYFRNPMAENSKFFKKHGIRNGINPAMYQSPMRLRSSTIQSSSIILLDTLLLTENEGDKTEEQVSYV

α2C = α2C (Homo sapiens, UniProt P18825); test: G protein dissociation BRET assay; format: cell-based
α2C, sequence (P18825 whole entry): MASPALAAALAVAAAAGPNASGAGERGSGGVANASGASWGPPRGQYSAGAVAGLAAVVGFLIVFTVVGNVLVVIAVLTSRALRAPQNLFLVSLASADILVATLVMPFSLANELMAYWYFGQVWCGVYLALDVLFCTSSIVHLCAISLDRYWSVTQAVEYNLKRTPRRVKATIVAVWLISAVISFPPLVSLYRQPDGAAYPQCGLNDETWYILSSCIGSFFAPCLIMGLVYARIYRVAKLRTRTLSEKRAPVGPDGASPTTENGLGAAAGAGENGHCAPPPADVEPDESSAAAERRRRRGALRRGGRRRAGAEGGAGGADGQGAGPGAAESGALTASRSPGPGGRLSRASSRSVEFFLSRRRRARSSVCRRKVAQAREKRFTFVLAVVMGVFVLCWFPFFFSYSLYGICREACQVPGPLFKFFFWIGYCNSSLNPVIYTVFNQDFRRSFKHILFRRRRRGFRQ

β1 = β1 (Homo sapiens, UniProt P08588); test: G protein dissociation BRET assay; format: cell-based; conditions: read-out: KB (antagonist)
β1, sequence (P08588 whole entry): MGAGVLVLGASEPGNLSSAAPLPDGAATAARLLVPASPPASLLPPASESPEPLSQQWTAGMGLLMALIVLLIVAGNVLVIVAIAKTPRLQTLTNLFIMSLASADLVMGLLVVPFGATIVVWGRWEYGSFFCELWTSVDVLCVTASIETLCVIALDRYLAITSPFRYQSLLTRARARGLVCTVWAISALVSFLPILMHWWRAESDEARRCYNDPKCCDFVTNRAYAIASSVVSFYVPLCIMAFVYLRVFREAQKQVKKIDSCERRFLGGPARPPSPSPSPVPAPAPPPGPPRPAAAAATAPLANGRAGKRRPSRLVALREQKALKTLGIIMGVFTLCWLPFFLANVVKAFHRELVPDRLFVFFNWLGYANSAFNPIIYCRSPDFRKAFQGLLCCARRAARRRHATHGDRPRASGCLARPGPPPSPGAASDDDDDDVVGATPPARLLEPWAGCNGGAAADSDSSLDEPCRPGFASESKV

hERG (KV11.1) channel [15] = target: T2, hERG (KV11.1) channel; conditions: read-out: IC50 (hERG inhibition)

T1 sequence (P28223 whole entry): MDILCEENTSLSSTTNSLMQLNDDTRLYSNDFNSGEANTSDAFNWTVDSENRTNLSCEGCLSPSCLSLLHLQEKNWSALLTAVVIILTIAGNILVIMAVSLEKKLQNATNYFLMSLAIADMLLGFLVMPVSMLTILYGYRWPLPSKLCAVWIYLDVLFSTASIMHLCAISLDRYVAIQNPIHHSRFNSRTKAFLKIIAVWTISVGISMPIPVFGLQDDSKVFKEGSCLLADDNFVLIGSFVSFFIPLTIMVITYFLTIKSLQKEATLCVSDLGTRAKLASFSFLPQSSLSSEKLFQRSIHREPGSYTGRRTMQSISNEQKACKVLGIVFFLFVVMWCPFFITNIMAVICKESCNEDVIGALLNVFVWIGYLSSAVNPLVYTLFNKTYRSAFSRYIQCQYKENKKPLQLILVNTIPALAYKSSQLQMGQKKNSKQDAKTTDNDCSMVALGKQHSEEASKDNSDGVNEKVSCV

CCN(CC)C(=O)[C@@H]1C=C2c3cccc4[nH]c(Br)c(c34)C[C@H]2N(C)C1.CCN(CC)C(=O)[C@@H]1C=C2c3cccc4[nH]c(Br)c(c34)C[C@H]2N(C)C1.O=C(O)C(O)C(O)C(=O)O [2-Br-LSD, (6aR,9R)-2-bromolysergic acid diethylamide (2:1) (+)-tartrate]
5-HT2A internalization (loss of surface expression) (5-HT2A [1]): partial agonist effect
self-grooming time in CVS mice [2]: partial reversal of CVS effects
Kb (α2A): 0.012 µM
EMAX (D3): 32%
level in the brain ([3]; 4 h post-dosing): below the lower limit of detection
plasma concentrations, male compared to female mice ([3]; IP): 2–5 x
mean plasma Cmax ([3]; females): 0.82606 µg/mL
mean plasma Cmax ([3]; males): 1.55874 µg/mL
mean terminal T1/2, plasma ([3]; IP, female mice): 54 to 156 min
mean T1/2 in the brain ([3]; IP, females): 24 to 78 min
mean brain Tmax ([3]; IP, male and female mice): 10.2 min
mean terminal T1/2, plasma ([3]; IP, male mice): 72 to 84 min
mean T1/2 in the brain ([3]; IP, males): 42 to 60 min
plasma Tmax ([3]; IP, all groups except male mice at 0.75 mg/kg): 12 min
plasma Tmax ([3]; IP, male mice, 0.75 mg/kg): 30 min
Cmax ([3]; females): 2.1 µM
Cmax ([3]; males): 3.9 µM
EC50 (hERG (KV11.1) channel [4]): 31.6 µM
side effects in cluster headache patients ([5]; 30 μg/kg orally on three occasions): only minor side effects
efficacy against cluster headaches [5]: showed efficacy against cluster headaches
subjective effects in humans ([5]; intravenous infusion of 18–22 μg/kg): more intense effects
subjective effects in humans ([5]; oral doses 64–256 μg/kg): mild subjective responses
locomotion (distance travelled) (Open field test; 0.3, 1, 3 mg/kg IP, females and males): neither females nor males showed a significant increase in locomotion
increase in time in the arena center (Open field test; female mice, 1 mg/kg IP): 88.18 ± 18.89 s
increased exploration of the open field center (Open field test; male mice): not significant
agonism at D1/5 subtypes (D1/5 subtypes): lacks strong agonism
exploration of the arena center in CVS mice ([6]; 1X 3 mg/kg IP): partially restored the effect of CVS
exploration of the arena center in CVS mice ([6]; 4X 1 mg/kg IP every 48 h): levels matching the control
time exploring the center in CVS mice ([6]; 4X 1 mg/kg, 28 days after the last treatment): remained reversed
average spine density in PFC (PFC pyramidal neurons): significant increase in average spine density
β-arrestin2 recruitment agonism (5-HT1A): no detectable β-arrestin2 recruitment agonism
tolerance on HTR after repeated treatment (HTR induced by DOI [7]): no tolerance was observed
number of aminergic GPCR targets with agonist activity (33 human aminergic GPCRs): 14
EC50 (Nav1.5 sodium channels): 1.1 µM
time-course of blockade of the response to DOI (HTR induced by DOI [8]; 1 mg/kg IP pre-treatment): almost completely blocked during the first 10 minutes
attenuation of the response to DOI (HTR induced by DOI [8]; 3 mg/kg IP pre-treatment, 30 min): 76%
EC50 (D4): 0.0012 µM
agonism or antagonism at the rest of the histamine and muscarinic GPCRs [9]: neither 2-Br-LSD nor LSD possessed weak agonism or antagonism
activity at 5-HT4 (5-HT4): lack potent agonist or antagonist activity
neuronal viability [10]: not different from control neurons
spine density (rat cortical neurons [11]): spine density increased
agonism at all 5-HT1 subtypes [12]: potent pan-agonism
total length of the dendritic arbor (rat cortical neurons [13]; 1 and 10 μM, 3 h at DIV3): increased the total length of the dendritic arbor
number of dendrites crossing the Sholl radii (rat cortical neurons [13]; 3 h treatment DIV3, read DIV6, maximal at 1 and 10 μM): dose-dependent increase
Kb (α1A): 0.043 µM
EC50 (5-HT2A [14]): 0.00081 µM
EMAX (5-HT2A [14]; normalized to 5-HT): 59.8%
agonism at H2 (H2): weak partial agonism
activity at 5-HT7a (5-HT7a): act as antagonists
EMAX (5-HT2C): 45.8%
IC50 (OCT2): 0.5 µM
induction of the HTR (head-twitch response; 0.1–10 mg/kg IP, male C57BL/6J mice, 60 min): did not induce the HTR
induction of the HTR after S-(–)-raclopride pretreatment (head-twitch response; raclopride 1 mg/kg, then 2-Br-LSD 3 mg/kg): did not induce the HTR
EC50 (D2): 0.00035 µM
5-HT2B agonist activity (5-HT2B; Gq dissociation, β-arrestin2 recruitment, Gq-mediated calcium flux): failed to induce
5-HT2B antagonist activity (5-HT2B; vs 5-HT): potent antagonist activity
EC50 (α2C): 0.0104 µM
EMAX (α2C; partial agonism): 40.5%
Kb (β1): 0.113 µM
IC50 (hERG (KV11.1) channel [15]): 31.6 µM
